Experimental data reported in patent publication US8420574B2, “Plant growth enhancement with combinations of PESA and herbicides” (Valent BioSciences Corporation, priority 2009, dated 2013).

Experiments:
[1] = test system: rice cv. Cheniere; assay: Pouch assay, PESA salt and herbicide added to the pouch solution; root and shoot length; assay type: in vivo; settings: for Shoot Length / Root Length: 0 ppm PESA salt; for Shoot Length: untreated 3.2; for Root Length: untreated 9.2
Procedure: Alternatively, PESA salt and herbicides may be added separately to the sterile water in the growth pouch.
(§1) Seeds were placed in germination pouches consisting of germination paper hydrated with sterile water that was an insert in a gas-permeable 16×14 cm plastic pouch (CYG Pouch; Mega International, St. Paul, Minn.). In these examples, in pouch solution evaluation, PESA sodium salt or other active ingredients were added to the sterile water in the pouch. The pouches were arranged in a completely randomized block design in growth racks and placed in 19-liter polycarbonate food storage containers (Rubbermaid Commercial Products, Winchester, Va.). The sealed containers were held in an upright growth cabinet maintained at 25 C with a 12 hour light: 12 hour dark photoperiod. After 6 days, the containers were removed from the growth cabinet, and the lengths of the roots and shoot were measured.

[2] = test system: rice cv. Cheniere; assay: Pouch assay with PESA salt seed treatment; root length; assay type: in vivo; settings: 0 g PESA salt/100 lbs of seed, untreated 9.8
Procedure: Procedure for Treating Samples of Seed in the Laboratory
Seed was sieved with a screen of mesh size appropriate to remove broken seeds and small trash. Cracked or otherwise damaged seeds were removed. The seed was well mixed, and 50 g samples were weighed into small plastic trays. Seed treatment slurries were made by adding measured amounts of PESA or its salts and other AIs to sufficient water to bring them up to a standard volume, typically 2 ml. A fungicide (Maxim XL; Syngenta Agricultural Products, Greensboro, N.C.), a polymeric binder (CF-Clear; Becker-Underwood, Ames, Iowa), and a colorant (Color Coat Red; Becker-Underwood, Ames, Iowa) were also included in the slurry at label rates. A small aliquot of this slurry was applied to the seed using the Hege 11 coater (Wintersteiger, Salt Lake City, Utah) with a six-inch bowl at a slurry rate of 30 ounces per 100 lbs of seed. The slurry was deposited drop-wise on the spinning disk atomizer using a syringe.
After treatment, each seed sample was placed in plastic trays and dried at a room temperature for 20 to 60 minutes. The samples were then placed in small plastic bags. Samples were spot-checked using a water activity meter to make sure the water activity is below 0.7.
as §1
Rice cv. Chemere was treated with PESA sodium salt prior to growing in the pouch. The treated seeds were then grown in the pouch in a dose-dependent series of trifluralin concentrations (Table 2). […] This confirms that seed treatment with the PESA salt protects or safens rice from the negative effects of trifluralin herbicide on root growth.

How did the “Shoot Length” value ([1]; 1 ppm trifluralin) turn out when `CCCN(CCC)c1c([N+](=O)[O-])cc(C(F)(F)F)cc1[N+](=O)[O-]` [Trifluralin, trifluralin, reference compound] was run?
The value was 3.7 cm.

What about the “Root Length” value ([1]; 1 ppm trifluralin) of the same compound?
The value was 9.8 cm.

What about the “Shoot Length” value ([1]; 10 ppm trifluralin) of the same compound?
The value was 3.3 cm.

And the “Root Length” value ([1]; 10 ppm trifluralin)?
Its value is 8.3 cm.

And the “root length reduced by” value ([1]; 100 ppm trifluralin)?
The value was 90%.

And the “Shoot Length” value ([1]; 100 ppm trifluralin)?
Its value is 2.2 cm.

What about the “Root Length” value ([1]; 100 ppm trifluralin) of the same compound?
The value was 0.9 cm.

What about the “Root Length” value ([2]; 50 ppm trifluralin) of the same compound?
The value was 0.9 cm.

What about the “Root Length” value ([2]; 100 ppm trifluralin) of the same compound?
The value was 0.1 cm.
